This is an account of results in US20210395313A1, “PEPTIDE PAC1 ANTAGONISTS” (AMGEN INC., priority 2017, published 2021).

Where a SMILES comes first, the peptide text is derived from it. Bridges are numbered along the chain shown (N, C = ends). Where no end group is shown, it is not given here. Bounds are passed on as bounds.

The target in the test is T1, rat PAC1 receptor (Rattus norvegicus, UniProt P32215).
T1 construct: SHSY-5Y (human neuroblastoma cell line) and RG-2 (rat glioma cell line) cells endogenously express human and rat PAC1 receptors, respectively; endogenous in cells; host or cells: RG-2 rat glioma cells
T1 sequence (P32215 20-523): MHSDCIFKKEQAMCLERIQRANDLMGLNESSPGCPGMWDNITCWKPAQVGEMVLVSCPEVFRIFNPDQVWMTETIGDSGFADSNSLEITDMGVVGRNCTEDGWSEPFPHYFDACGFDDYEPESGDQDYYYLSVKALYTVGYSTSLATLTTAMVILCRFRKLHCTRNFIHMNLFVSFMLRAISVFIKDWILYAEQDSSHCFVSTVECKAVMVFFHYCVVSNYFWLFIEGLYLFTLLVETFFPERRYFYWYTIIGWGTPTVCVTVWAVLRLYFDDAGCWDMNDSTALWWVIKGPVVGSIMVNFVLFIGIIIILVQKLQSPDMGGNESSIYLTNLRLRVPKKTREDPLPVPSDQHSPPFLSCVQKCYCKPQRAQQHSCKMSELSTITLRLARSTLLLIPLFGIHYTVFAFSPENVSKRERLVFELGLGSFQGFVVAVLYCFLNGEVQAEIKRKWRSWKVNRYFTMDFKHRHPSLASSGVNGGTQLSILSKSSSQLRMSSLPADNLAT
Description: LANCE Ultra cAMP accumulation antagonist assay in RG-2 cells.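 Note: RG-2 rat glioma cells endogenously expressing PAC1, test peptide preincubated 30 min, then PAC1 agonist added at its EC80 for 15 min, cAMP accumulation read by LANCE Ultra.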 In kind it is cell-based.
`CC[C@H](C)[C@H](NC(=O)[C@H](C)NC(=O)[C@H](CCCCN)NC(=O)[C@H](CCCNC(=N)N)NC(=O)[C@H](Cc1ccccc1)NC(=O)[C@H](CCC(N)=O)NC(=O)[C@@H]1CSSC[C@H](N)C(=O)N[C@@H](CC(=O)O)C(=O)N[C@@H](C)C(=O)N[C@@H]([C@@H](C)O)C(=O)N1)C(=O)N[C@@H](CC(=O)O)C(=O)N[C@@H](CC(=O)O)C(=O)N[C@H]1CSSC[C@@H](C(=O)N[C@@H](CCSC)C(=O)N[C@@H](CCCCN)C(=O)N[C@@H](CCC(N)=O)C(=O)N[C@@H](CCCCN)C(=O)N[C@@H](CCCCN)C(=O)N[C@@H](CCCCN)C(=O)N[C@@H](CCC(=O)O)C(=O)N[C@@H](Cc2c[nH]c3ccccc23)C(=O)N[C@@H](CCCCN)C(=O)N[C@@H](C)C(=O)NCC(=O)N[C@@H](Cc2c[nH]cn2)C(=O)O)NC(=O)[C@H](C)NC(=O)[C@H](CO)NC(=O)[C@H](Cc2c[nH]cn2)NC(=O)[C@H](Cc2ccc(O)cc2)NC(=O)[C@H](C)NC(=O)[C@H](CCC(N)=O)NC(=O)[C@H](CCCNC(=N)N)NC(=O)[C@H](C)NC1=O` [compound 449] (H-CDATCQFRKAIDDCARQAYHSACMKQKKKEWKAGH-OH; disulfide 1-5, 14-23) showed an IC50 of 1 to 100 nM.
The figure for “CDATCQFRKAIDDCQKQAHHSNVPGSVFKACMKQKKKEFKAGH (disulfide 1-5, 14-31) [compound 171]” is 0.01 to 1 nM.
The compound “CDATCQFRKAIDDCQKQAHHSNVPGSVFKACMKQKKKEFKAGA (disulfide 1-5, 14-31) [compound 175]” gave an IC50 of 0.01 to 1 nM.
The figure for “MCDATCQFRKAIDDCQKQAHHSNVPGSVFKACMKQKKKEFKAGHHHHHH (disulfide 2-6, 15-32) [compound 204]” is 0.01 to 1 nM.
To `CC[C@H](C)[C@H](NC(=O)[C@H](C)NC(=O)[C@H](CCCCN)NC(=O)[C@H](CCCNC(=N)N)NC(=O)[C@H](Cc1ccccc1)NC(=O)[C@H](CCC(N)=O)NC(=O)[C@H](CO)NC(=O)[C@@H](NC(=O)[C@H](C)N)[C@@H](C)O)C(=O)N[C@@H](CC(=O)O)C(=O)N[C@@H](CC(=O)O)C(=O)N[C@H]1CSSC[C@@H](C(=O)N[C@@H](CCSC)C(=O)N[C@@H](CCCCN)C(=O)N[C@@H](CCC(N)=O)C(=O)N[C@@H](CCCCN)C(=O)N[C@@H](CCCCN)C(=O)N[C@@H](CCCCN)C(=O)N[C@@H](CCC(=O)O)C(=O)N[C@@H](Cc2c[nH]c3ccccc23)C(=O)N[C@@H](CCCCN)C(=O)O)NC(=O)[C@H](C)NC(=O)[C@H](CCCCN)NC(=O)[C@H](Cc2ccccc2)NC(=O)[C@H](C(C)C)NC(=O)[C@H](CO)NC(=O)[C@H](CO)NC(=O)[C@H](Cc2c[nH]cn2)NC(=O)[C@H](Cc2ccc(O)cc2)NC(=O)[C@H](C)NC(=O)[C@H](CCC(N)=O)NC(=O)[C@H](CCCNC(=N)N)NC(=O)[C@H](C)NC1=O` [compound 440] (H-ATSQFRKAIDDCARQAYHSSVFKACMKQKKKEWK-OH; disulfide 12-25) belongs 1 to 100 nM.
Compound `CSCC[C@H](NC(=O)[C@H](C)NC(=O)[C@@H](NC(=O)[C@H](CCCCN)NC(=O)[C@H](CCCCN)NC(=O)[C@H](Cc1ccc(O)cc1)NC(=O)[C@H](CC(C)C)NC(=O)[C@H](CO)NC(=O)[C@H](C)NC(=O)[C@@H](NC(=O)[C@H](CC(C)C)NC(=O)CNC(=O)[C@H](CCCCN)NC(=O)[C@H](CCCNC(=N)N)NC(=O)[C@H](Cc1ccc(O)cc1)NC(=O)[C@H](CCC(N)=O)NC(=O)[C@@H]1CSSC[C@H](N)C(=O)N[C@@H](CC(=O)O)C(=O)N[C@@H](C)C(=O)N[C@@H]([C@@H](C)O)C(=O)N1)C(C)C)C(C)C)C(=O)N[C@@H](CCC(N)=O)C(=O)N[C@@H](CCCCN)C(=O)N[C@@H](CCCNC(=N)N)C(=O)N[C@@H](Cc1ccc(O)cc1)C(N)=O` [compound 437] (H-CDATCQYRKGLVASLYKKVAMQKRY-NH2; disulfide 1-5) gave an IC50 of over 100 nM.
To “CDATCQFRKAIDDCANKSWHSNVPGSVFKLCMKQKKKEWKAGH-NH2 (disulfide 1-5, 14-31) [compound 445]” belongs over 100 nM; to “MCDATCQFRKAIDDCQKQAHHSNVPGSVFKACMKQKKKEFKAGHHHHH (disulfide 2-6, 15-32) [compound 199]”, 0.01 to 1 nM; to `CC[C@H](C)[C@H](NC(=O)[C@H](C)NC(=O)[C@H](CCCCN)NC(=O)[C@H](CCCNC(=N)N)NC(=O)[C@H](Cc1ccccc1)NC(=O)[C@H](CCC(N)=O)NC(=O)[C@@H]1CSSC[C@H](N)C(=O)N[C@@H](CC(=O)O)C(=O)N[C@@H](C)C(=O)N[C@@H]([C@@H](C)O)C(=O)N1)C(=O)N[C@@H](CC(=O)O)C(=O)N[C@@H](CC(=O)O)C(=O)N[C@H]1CSSC[C@@H](C(=O)N[C@@H](CCSC)C(=O)N[C@@H](CCCCN)C(=O)N[C@@H](CCC(N)=O)C(=O)N[C@@H](CCCCN)C(=O)N[C@@H](CCCCN)C(=O)N[C@@H](CCCCN)C(=O)N[C@@H](CCC(=O)O)C(=O)N[C@@H](Cc2c[nH]c3ccccc23)C(=O)N[C@@H](CCCCN)C(=O)N[C@@H](C)C(=O)NCC(=O)N[C@@H](Cc2c[nH]cn2)C(=O)O)NC(=O)[C@H](C)NC(=O)[C@H](CCCCN)NC(=O)[C@H](Cc2ccccc2)NC(=O)[C@H](C)NC(=O)[C@H](C)NC1=O` [compound 443] (H-CDATCQFRKAIDDCAAFKACMKQKKKEWKAGH-OH; disulfide 1-5, 14-20), over 100 nM.
Turning to “CDATCQFRKAIDDCQKQAHHSNVPGSVFKACMKQKKKEFKAGF (disulfide 1-5, 14-31) [compound 172]”, the IC50 lay within 0.01 to 1 nM.
The figure for `CC[C@H](C)[C@@H]1NC(=O)[C@H](C)NC(=O)[C@H](CCCCN)NC(=O)[C@H](CCCNC(=N)N)NC(=O)[C@H](Cc2ccccc2)NC(=O)[C@H](CCC(N)=O)NC(=O)[C@H](CO)NC(=O)[C@H]([C@@H](C)O)NC(=O)[C@H](C)NC(=O)[C@H](CC(=O)O)NC(=O)[C@@H](N)CSSC[C@@H](C(=O)N[C@@H](Cc2c[nH]cn2)C(=O)O)NC(=O)[C@H](C)NC(=O)[C@H](CCCCN)NC(=O)[C@H](Cc2c[nH]c3ccccc23)NC(=O)[C@H](CCC(=O)O)NC(=O)[C@H](CCCCN)NC(=O)[C@H](CCCCN)NC(=O)[C@H](CCCCN)NC(=O)[C@H](CCC(N)=O)NC(=O)[C@H](CCCCN)NC(=O)[C@H](CCSC)NC(=O)[C@H](CO)NC(=O)[C@H](C)NC(=O)[C@H](CCCCN)NC(=O)[C@H](Cc2ccccc2)NC(=O)[C@H](C)NC(=O)[C@H](CO)NC(=O)[C@H](CC(=O)O)NC(=O)[C@H](CC(=O)O)NC1=O` [compound 442] (H-CDATSQFRKAIDDSAFKASMKQKKKEWKACH-OH; disulfide 1-30) is over 100 nM; for “GSCDATCQFRKAIDDCQKQAHHSNVPGSVFKACMKQKKKEFKAG-NH2 (disulfide 3-7, 16-33) [compound 185]” it is 0.01 to 1 nM.
The figure for “CDATCQFRKAIDDCQKQAHHSNVPGSVFKACMKQKKKEFKAGR (disulfide 1-5, 14-31) [compound 170]” is 0.01 to 1 nM; for “CDATCQFRKAIDDCQKQAHHSNVPGSVFKACMKQKKKEFKAGY (disulfide 1-5, 14-31) [compound 164]” it is 0.01 to 1 nM; for `CC[C@H](C)[C@H](NC(=O)[C@H](C)NC(=O)[C@H](CCCCN)NC(=O)[C@H](CCCNC(=N)N)NC(=O)[C@H](Cc1ccccc1)NC(=O)[C@H](CCC(N)=O)NC(=O)[C@@H]1CSSC[C@H](N)C(=O)N[C@@H](CC(=O)O)C(=O)N[C@@H](C)C(=O)N[C@@H]([C@@H](C)O)C(=O)N1)C(=O)N[C@@H](CC(=O)O)C(=O)N[C@@H](CC(=O)O)C(=O)N[C@H]1CSSC[C@@H](C(=O)N[C@@H](CCSC)C(=O)N[C@@H](CCCCN)C(=O)N[C@@H](CCC(N)=O)C(=O)N[C@@H](CCCCN)C(=O)N[C@@H](CCCCN)C(=O)N[C@@H](CCCCN)C(=O)N[C@@H](CCC(=O)O)C(=O)N[C@@H](Cc2c[nH]c3ccccc23)C(=O)N[C@@H](CCCCN)C(=O)N[C@@H](C)C(=O)NCC(=O)N[C@@H](Cc2c[nH]cn2)C(=O)O)NC(=O)[C@H](C)NC(=O)[C@H](CCCCN)NC(=O)[C@H](Cc2ccccc2)NC(=O)[C@H](C)NC1=O` [compound 444] (H-CDATCQFRKAIDDCAFKACMKQKKKEWKAGH-OH; disulfide 1-5, 14-19) it is 1 to 100 nM.
The figure for `CC[C@H](C)[C@H](NC(=O)[C@H](C)NC(=O)[C@H](CCCCN)NC(=O)[C@H](CCCNC(=N)N)NC(=O)[C@H](Cc1ccccc1)NC(=O)[C@H](CCC(N)=O)NC(=O)[C@@H]1CSSC[C@H](N)C(=O)N[C@@H](CC(=O)O)C(=O)N[C@@H](C)C(=O)N[C@@H]([C@@H](C)O)C(=O)N1)C(=O)N[C@@H](CC(=O)O)C(=O)N[C@@H](CC(=O)O)C(=O)N[C@H]1CSSC[C@@H](C(=O)N[C@@H](CCSC)C(=O)N[C@@H](CCCCN)C(=O)N[C@@H](CCC(N)=O)C(=O)N[C@@H](CCCCN)C(=O)N[C@@H](CCCCN)C(=O)N[C@@H](CCCCN)C(=O)N[C@@H](CCC(=O)O)C(=O)N[C@@H](Cc2c[nH]c3ccccc23)C(=O)N[C@@H](CCCCN)C(=O)N[C@@H](C)C(=O)NCC(=O)N[C@@H](Cc2c[nH]cn2)C(=O)O)NC(=O)[C@H](C)NC(=O)[C@H](CCCCN)NC(=O)[C@H](Cc2ccccc2)NC(=O)[C@H](CCC(N)=O)NC(=O)[C@H](CCCNC(=N)N)NC(=O)[C@H](C)NC1=O` [compound 447] (H-CDATCQFRKAIDDCARQFKACMKQKKKEWKAGH-OH; disulfide 1-5, 14-21) is 0.01 to 1 nM.

By IC50 is commonly meant the concentration that inhibits the measured activity by half. A higher IC50 goes with weaker potency.
